{"source": "paper PMC8752738", "about": "“A propolis-derived small molecule ameliorates metabolic syndrome in obese mice by targeting the CREB/CRTC2 transcriptional complex” (Nature Communications, 2022)", "key": {"[1]": {"molecular_target": "T1, MYC-CREB-ZIP / FLAG-CRTC2 interaction (Homo sapiens, UniProt P16220)", "T1 construct": "expressed in transfected cells; host or cells: HEK293", "T1 sequence (P16220 269-327 limits assumed)": "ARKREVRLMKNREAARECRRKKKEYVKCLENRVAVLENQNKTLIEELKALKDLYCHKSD", "assay": "Immunoprecipitation of FLAG-CRTC2-WT with MYC-CREB-ZIP fragment", "format": "biochemical", "details": "for Relative FLAG/MYC in MYC-IP fraction: Fig 3c replicates, FSK +", "description": "Fig. 3 APC inhibits CRTC2 interacting with CREB-ZIP and reduces acetyltransferase activity of CBP by binding with CREB protein directly. a Isothermal titration calorimetry (ITC) of HIS-CREB protein solution titrated into APC solution. The bottom solid line represents a nonlinear least-squares fitted by a single-site binding model. One of two independent experiments is shown here. b IC50 of APC inhibitory activity detected by CREB–CRTC2 two-hybrid assay in HEK293T cells (n = 3 per treatment, data are represented as mean ± SEM). One of three independent experiments is shown here. c Immunoprecipitation analysis of FLAG-CRTC2-WT recovered by anti-MYC antibody from HEK293 cells co-transfected with plasmids for a Myc-Creb-Zip fragment and the FLAG-Crtc2-Wt, stimulated by FSK (10 nM) for 2-h before harvest. APC (1–10 μM) was included in immunoprecipitation mixtures as indicated. Top represents one of three independent experiments, and the relative gray density of FLAG normalized to MYC in MYC-IP- factions is shown as a bar graph (bottom, n = 3). Data are represented as mean ± SEM; P values were determined by one-way ANOVA followed Dunnett’s multiple comparisons test. d Immunoblotting analysis of the acetyltransferase activity of CBP. The protein levels of H3K27ac and total Histone H3 were determined using specific antibodies from HEK293 cell lysate overexpressing HA-Cbp plasmid. Pretreatment with trichostatin (TSA, 0.5 μM) for 1 h prior to incubation with APC (2, 10 μM) for another 2-h. The top represents one of three independent experiments, and the relative gray density of H3K27ac normalized to total Histone H3 in cell lysate is shown as a bar graph (bottom, n = 3). Data are represented as mean ± SEM; P values were determined by one-way ANOVA followed Dunnett’s multiple comparisons test. ns, P > 0.05; *P < 0.05; **P < 0.01. Sources data for this figure are provided as source data file."}, "[2]": {"test_system": "primary hepatocytes", "assay": "MTT assay, primary hepatocytes", "format": "cell-based, mouse", "details": "for Relative MTT absortance-48H, mean: n=5 (0 μM = 100); for Relative MTT absortance-48H: Supp. fig.3b, individual replicates", "procedure": "Primary hepatocytes were exposed to APC at indicated concentrations for 48-h, then co-incubated with methyl thiazolyl tetrazolium (0.5 mg/mL in PBS, Sigma) solution for 5-h. After removing the solution, the purple crystals were dissolved using DMSO, and the absorbance was measured at 550 nm."}, "[3]": {"test_system": "mTORC1", "assay": "Immunoblotting of mTORC1 signaling, mature SREBP1 and FASN in primary hepatocytes", "format": "cell-based, mouse", "details": "glucagon-insulin-treated primary hepatocytes", "procedure": "Fi g u re B . Immunoblotting analysis of phosphorated or total protein amounts of S6K , mature SREBP -1and FASN in primary hepatocyt es . The cells wer epretreated with APC (10 μ M) for 2 hours , exposed to glucagon (100 nM) for 4 hours, and t hen followed by12- hour insulin (100 nM) incubationbefore collection.\n(1 picture or pasted object on this page, not shown here) […]\nI have a few more points that have to be addressed in the revised work.\n1. In Figure B, it appeared that APC-induced p-S6K level was rather inhibited by glu/ins treatment (lane 3 vs lane 4). Is it significant?\nResponse: We agree wit h Reviewer1’ s comments that the western blotting band of p-S6K level of lane 4 seems weaker than that of lane3 in Figure B. However, we performed the densitometry analysis of all the results from three independent […]\nindependent of its effect on reducing SREBP-1c expression and the subsequent repression of lipogenesis. The authors should simply run western blot for mTORC1 signaling by utilizing the existing samples.\nResponse: We are grat eful for Reviewer1’s com ments. […]\nto glucagon (100 nM) for 4 hours, and then followed by 12- hour insulin (100 nM) incubation before collection. […] Data are represented as mean ± SEM. *, p < 0.05; **, p < 0.01; p values were determined by two- way ANOVA followed Bonferroni’s multiple comparisons test. […]"}}, "note": "“And” between values parts separate entries of the source, which are not always exact repeats. Equal values may be shown once."}
{"compound": "CC(C)=CCc1cc(C=CC(=O)O)cc(CC=C(C)C)c1O", "note": "[APC, 3,5-diprenyl-4-hydroxycinnamic acid]", "values": [{"measurement": "FLAG-CRTC2 binding with MYC-CREB-ZIP domain", "setting": "[1]; APC 1–10 μM", "value": "inhibited"}, {"measurement": "Relative FLAG/MYC in MYC-IP fraction", "setting": "[1]; APC 1 uM", "value": "3.874 and 3.872 and 3.786"}, {"measurement": "Relative FLAG/MYC in MYC-IP fraction", "setting": "[1]; APC 5 uM", "value": "3.592 and 3.454 and 3.26"}, {"measurement": "Relative FLAG/MYC in MYC-IP fraction", "setting": "[1]; APC 10 uM", "value": "2.4146 and 2.393 and 2.225"}, {"measurement": "Relative MTT absortance-48H, mean", "setting": "[2]; APC 1 μM", "value": 102}, {"measurement": "Relative MTT absortance-48H, mean", "setting": "[2]; APC 5 μM", "value": 103.2}, {"measurement": "Relative MTT absortance-48H, mean", "setting": "[2]; APC 25 μM", "value": 101.9}, {"measurement": "Relative MTT absortance-48H, mean", "setting": "[2]; APC 100 μM", "value": 105.7}, {"measurement": "hepatocyte viability", "setting": "[2]; APC up to 100 μM, 48-h", "value": "did not impair hepatocyte viability"}, {"measurement": "Relative MTT absortance-48H", "setting": "[2]; APC 1 uM", "value": "101.3514 and 105.1051 and 97.5976 and 102.8529 (2×)"}, {"measurement": "Relative MTT absortance-48H", "setting": "[2]; APC 5 uM", "value": "99.8499 and 98.3484 and 103.6036 and 105.1051 and 108.8589"}, {"measurement": "Relative MTT absortance-48H", "setting": "[2]; APC 25 uM", "value": "96.6066 and 104.3544 and 100.6006 and 99.6096 and 108.1081"}, {"measurement": "Relative MTT absortance-48H", "setting": "[2]; APC 100 uM", "value": "107.3574 and 101.1111 and 106.6066 and 109.6096 and 103.6036"}, {"measurement": "mTORC1 activity", "setting": "[3]", "value": "increased"}, {"measurement": "protein amounts of mature SREBP1 and fat acid synthase", "setting": "[3]", "value": "decreased"}]}
